Patent publication US5254571A, “Chemical compounds” (Smith Kline & French Laboratories Ltd., priority 1988, dated 1993)

Key:
[1] = system: U46619-induced bronchoconstriction; assay: Bronchodilatation in vivo: inhibition of U46619-induced bronchoconstriction in anaesthetised guinea-pigs; design: species or system guinea-pig (male, Dunkin Hartley); conditions: Cavia porcellus, iv, U46619 infused i.v. 2.5 nmol/min, compound i.v. bolus, peak inhibition, read-out: BD50 (dose required to reduce the U46619-induced bronchoconstriction by 50%)
Experimental: Male guinea-pigs of the Dunkin Hartley strain (500-600 g) were anaesthetised with Sagatal (pentobarbital sodium) (60 mg/kg). Airway resistance was measured using a modification of the classical Konzett-Rossler technique (J. Pharm. Methods, 13, 309-315, 1985). U46619 (9,11-methanoepoxy-pGH2) was infused i.v. at a rate of 2.5 nmol/min, this produced a steady state of bronchoconstriction (approximately 120% increase from basal airway resistance). The compound under test was administered by i.v. bolus injection, and the subsequent peak inhibition of bronchoconstriction recorded.
The dose of compound required to reduce the U46619-induced bronchoconstriction by 50% is given as the BD50.

[2] = system: hindquarter blood flow / vascular resistance; assay: Vasodilatation in vivo: hindquarter blood flow in anaesthetised rats; design: species or system rat (male Wistar); conditions: Rattus norvegicus, iv, bolus i.v., from dose response curves, read-out: EDHQ50 (dose required to produce a 50% increase in hindquarter blood flow)
Experimental: Male Wistar rats (300 g) were anaesthetised with a sodium 5-ethyl-5-(1-methylpropyl)-2-thiobarbiturate/sodium pentobarbitone mixture i.p. (62.5 and 22.5 mg/kg respectively). The trachea was cannulated and the rats breathed spontaneously air enriched with O2 (5 ml/min). Blood pressure was recorded from a carotid artery and a jugular vein was cannulated for the administration of compounds. The temperature of the animal was maintained at 37° C. by the use of an electric blanket. […] The perfusion circuit was primed with 5% bovine serum albumin dissolved in 0.9% sodium chloride solution, pH adjusted to 7.4. Initially the pump rate was set between 10 and 15 ml/min to match the hind quarter perfusion pressure to that of the systemic circulation. Once set, the pressure remained unaltered for the rest of the experiment. A change in the speed of the pump (equivalent to hindquarter blood flow) was used to assess the changes in hindquarter vascular resistance.
All compounds were administered as a bolus i.v. and from the dose response curves the dose required to produce a 50% increase in hindquarter blood flow (EDHQ50) was determined in μmoles/kg.

[3] = target: calmodulin insensitive cyclic GMP phosphodiesterase (Homo sapiens, UniProt O76074); assay: Phosphodiesterase activity: inhibition of calmodulin insensitive cyclic GMP phosphodiesterase; assay type: biochemical; conditions: procedure described in European Patent Application No. 293063; range given for the listed Examples together; read-out: IC50 (concentration of inhibitor required for 50% inhibition of enzyme activity)
Experimental: The activity of the compounds of the present invention as inhibitors of a calmodulin insensitive cyclic GMP phosphodiesterase was measured using the procedure described in European Patent Application No. 293063. […] The compounds of the present invention have the advantage that they are selective in not inhibiting cyclic AMP phosphodiesterase (type III).

[4] = system: ovalbumen-induced bronchoconstrictor response; assay: Anti-allergic activity: ovalbumen-induced bronchoconstriction in sensitised guinea-pigs; assay type: in vivo, guinea-pig (male, Duncan Hartley); conditions: 11 μmol/kg i.v. bolus; 30 minutes following drug administration; ovalbumen 1 mg/kg i.v. challenge; n = 6
Experimental: Male Duncan Hartley guinea-pigs (250-300 g) were sensitised to ovalbumen by i.p. injection of 2 ml of 50 mg.ml^-1 i.p. and 0.2 ml s.c. Three weeks later they were anaesthetised with 60 mg.kg^-1 sodium pentabarbitone. The trachea was cannulated and the animal respired at a rate of 40 breaths per minute and at an initial tracheal inflation pressure of 16 mmHg. Tracheal inflation pressure was measured by a transducer connected to a side arm of the respiration circuit The carotid artery was cannulated for the measurement of blood pressure and the signal was used to trigger an instantaneous rate meter. A jugular vein was cannulated for the administration of drug and allergen. After surgery the animals were allowed to stabilise and the drug was administered i.v. as a bolus. Following this, ovalbumen 1 mg.kg^-1 was injected i.v. as the antigen challenge either 2, 15 or 30 minutes following drug treatment and the peak bronchoconstrictor response recorded. For the control group ovalbumen only was given. One ovalbumen challenge per guinea-pig was used and n = 6 for each time point. The percentage increase in tracheal inflation pressure was calculated.

IC50 [3] [µM]	SMILES	ED50 [1] [µmol/kg]	ED (50% increase) [2] [µmol/kg]	inhibition of the control bronchoconstrictor response [4] [%]
	CCCOc1ccccc1-c1ccc(C(=O)O)c(=O)[nH]1 [Example 3, 6-(2-Propoxyphenyl)-1,2-dihydro-2-oxopyridine-3-carboxylic acid]	10.6		
1.7 to 30	CCCOc1ccccc1-c1ccc(C(=O)OC)c(=O)[nH]1 [Example 4, Methyl 6-(2-propoxyphenyl)-1,2-dihydro-2-oxopyridine-3-carboxylate]			
1.7 to 30	CCCOc1ccccc1-c1cccc(=O)[nH]1 [Example 6, 6-(2-Propoxyphenyl)-2(1H)-pyridinone]			
1.7 to 30	CCOc1ccccc1-c1ccc(C#N)c(=O)[nH]1 [Example 9, 3-Cyano-6-(2-ethoxyphenyl)-2(1H)-pyridinone]			
1.7 to 30	CCCOc1ccccc1-c1[nH]c(=O)c(C#N)cc1C [Example 12, 3-Cyano-5-methyl-6-(2-propoxyphenyl)-2(1H)-pyridinone]			
1.7 to 30	CCCOc1ccccc1-c1ccc(C#N)c(=S)[nH]1 [Example 14, 3-Cyano-6-(2-propoxyphenyl)-2(1H)-pyridinethione]			

SMILES	IC50 [3] [µM]	ED50 [1] [µmol/kg]	ED (50% increase) [2] [µmol/kg]	inhibition of the control bronchoconstrictor response [4] [%]
CCCOc1ccccc1-c1ccc(C#N)c(=O)[nH]1 [Example 1, 3-Cyano-6-(2-propoxyphenyl)-2(1H)-pyridinone]	1.7 to 30	10	11.5	
CCCOc1ccccc1-c1ccc(C(N)=O)c(=O)[nH]1 [Example 2, 6-(2-Propoxyphenyl)-1,2-dihydro-2-oxopyridine-3-carboxamide]	1.7 to 30	1.1	14	44
CCCOc1ccccc1-c1ccc([N+](=O)[O-])c(=O)[nH]1 [Example 7, 3-Nitro-6-(2-propoxyphenyl)-2(1H)-pyridinone]	1.7 to 30	7.7		
CCCOc1ccccc1-c1cc(C)c(C#N)c(=O)[nH]1 [Example 11, 3-Cyano-4-methyl-6-(2-propoxyphenyl)-2(1H)-pyridinone]	1.7 to 30	2.3		
